Experiment: Cytotoxicity against mouse L1210/0 cells after 48 hrs
Type: cell-based
Details: Mus musculus, L1210/0, 48 h

For `[N-]=[N+]=NCc1cn([C@H]2C[C@H](O)[C@@H](CO)O2)c(=O)[nH]c1=O`, which IC50 is on record?
Its IC50 is 124 µM.

For `OC[C@@H]1[C@@H]2COC[C@H]2C[C@H]1n1cnc2c(Cl)ncnc21`, which IC50 is on record?
Its IC50 is greater than 200 µM.

With `Nc1ncnc2c1nnn2C[C@H]1CCC[C@H]1CO` as the compound, how does the IC50 read?
The IC50 was greater than 200 µM.

With `CNc1nc2c(=O)[nH]c(N)nc2n1COCCO` as the compound, how does the IC50 read?
The IC50 was greater than 200 µM.

With `Nc1ncnc2c1ncn2C1CC(O)C(/C=N/O)O1` (centres undefined) as the compound, how does the IC50 read?
Its IC50 is 17.4 µM.

For `CC1NC(=O)C(F)=CN1[C@@H]1O[C@H](COP2OCCCO2)[C@@H](O)C1=O` (some centres undefined), which IC50 is on record?
Its IC50 is 0.75 µM.

Which IC50 does the source give for `O=C1O/C(=C\Cn2cc(C(F)(F)F)c(=O)[nH]c2=O)C(O)=C1O` here?
Its IC50 is greater than 200 µM.

Which IC50 does the source give for `CC(=O)OC(C)Cn1cnc2c(Cl)nc(I)nc21` (centres undefined) here?
Its IC50 is 13 µM.

With `O=c1[nH]c(=O)n(COCCO)cc1Br` as the compound, how does the IC50 read?
Its IC50 is greater than 200 µM.

Which IC50 does the source give for `O=c1[nH]c(=O)n([C@H]2C[C@H](O)[C@@H](CO)O2)cc1CO` here?
Its IC50 is 9.18 µM.

Which IC50 does the source give for `O=C1O/C(=C\Cn2ccc(=O)[nH]c2=O)C(O)=C1O` here?
Its IC50 is greater than 200 µM.

Which IC50 does the source give for `CCCNc1ncnc2c1ncn2C[C@@H]1C[C@H](CO)c2ccccc21` here?
Its IC50 is greater than 200 µM.

With `CC1=C(C)C(=O)C(c2cn([C@H]3C[C@H](O)[C@@H](CO)O3)c(=O)[nH]c2=O)=CC1=O` as the compound, how does the IC50 read?
The IC50 was 112 µM.

With `O=c1ccn([C@@H]2C[C@H](CO)C[C@@H]2CO)c(=O)[nH]1` as the compound, how does the IC50 read?
Its IC50 is greater than 200 µM.

With `O=Cc1cn([C@H]2C[C@H](O)[C@@H](CO)O2)c(=O)[nH]c1=O` as the compound, how does the IC50 read?
The IC50 was 1.07 µM.

For `CC1(C)C(CO)CC1Cn1cnc2c(=O)[nH]c(N)nc21` (centres undefined), which IC50 is on record?
Its IC50 is greater than 200 µM.

For `O=c1[nH]c(=O)n([C@H]2C[C@H](O)[C@@H](CO)O2)cc1I` [IDOXURIDINE], which IC50 is on record?
The IC50 was 173 µM.

Which IC50 does the source give for `CC1(C)[C@@H](CCCO)C[C@H]1n1nnc2c(Cl)nc(N)nc21` here?
Its IC50 is greater than 200 µM.

Which IC50 does the source give for `O=c1[nH]c(=O)n([C@H]2C[C@H](O)[C@@H](CO)O2)cc1C#CCCO` here?
Its IC50 is greater than 200 µM.

For `CC(=O)OCCOCn1cnc2c(Cl)ncnc21`, which IC50 is on record?
The IC50 was 163 µM.

Which IC50 does the source give for `CC(O)Cn1cnc2c(Cl)nc(I)nc21` (centres undefined) here?
Its IC50 is greater than 200 µM.

For `COC1=C(OC)C(O)(CCn2cnc3c(N)ncnc32)OC1=O` (centres undefined), which IC50 is on record?
Its IC50 is greater than 200 µM.

With `C[C@@]1(CO)O[C@H](c2ccc(N)cc2F)C[C@@H]1O` as the compound, how does the IC50 read?
Its IC50 is greater than 200 µM.

For `CCCCCC#Cc1cn([C@H]2C[C@H](O)[C@@H](CO)O2)c(=O)[nH]c1=O`, which IC50 is on record?
Its IC50 is greater than 200 µM.

For `Nc1ccn([C@@H]2O[C@H](CO)[C@H](F)[C@@H]2O)c(=O)n1`, which IC50 is on record?
Its IC50 is 159 µM.

With `CCC#Cc1cn([C@@H]2O[C@H](CO)[C@@H](O)[C@@H]2O)c(=O)[nH]c1=O` as the compound, how does the IC50 read?
The IC50 was greater than 200 µM.

With `COC1=C(OCc2ccc([N+](=O)[O-])cc2)C(=O)O/C1=C\Cn1cnc2c(Cl)ncnc21` as the compound, how does the IC50 read?
The IC50 was 13.6 µM.

For `COc1ncnc2c1ncn2C[C@@H]1C[C@H](CO)c2ccccc21`, which IC50 is on record?
Its IC50 is greater than 200 µM.

For `O=c1[nH]c(=O)n([C@H]2C[C@H](O)[C@@H](CO)O2)cc1/C=N/O`, which IC50 is on record?
The IC50 was 15.5 µM.

With `COc1c(C)c(-c2cn([C@H]3C[C@H](O)[C@@H](CO)O3)c(=O)[nH]c2=O)c(OC)c2ccccc12` as the compound, how does the IC50 read?
Its IC50 is greater than 200 µM.

With `CCO/N=C\C1OC(n2cnc3c(N)ncnc32)C(O)C1O` (centres undefined) as the compound, how does the IC50 read?
Its IC50 is greater than 200 µM.

Which IC50 does the source give for `Nc1ncnc2c1ncn2C1OC(/C=N/O)CC1O` (centres undefined) here?
Its IC50 is greater than 200 µM.

Which IC50 does the source give for `O=c1[nH]c(=O)n([C@H]2C[C@H](O)[C@@H](CO)O2)cc1Br` [BROXURIDINE] here?
Its IC50 is 84.7 µM.

With `COc1ccc(-c2ncnc3c2ncn3C[C@@H]2C[C@H](CO)c3ccccc32)cc1` as the compound, how does the IC50 read?
The IC50 was 17.6 µM.

With `Cc1cn(COCCO)c(=O)[nH]c1=O` as the compound, how does the IC50 read?
The IC50 was greater than 200 µM.

With `C[C@H](O)C1CC(CCn2nnc3c(N)ncnc32)C1(C)C` (some centres undefined) as the compound, how does the IC50 read?
The IC50 was greater than 200 µM.

Which IC50 does the source give for `C[C@H](O)C1CC(CCn2cnc3c(N)ncnc32)C1(C)C` (some centres undefined) here?
The IC50 was greater than 200 µM.

For `CC1(C)C(CO)CC1Cn1nnc2c(Cl)nc(N)nc21` (centres undefined), which IC50 is on record?
The IC50 was greater than 200 µM.

For `CCCCCCc1cn([C@H]2C[C@H](O)[C@@H](CO)O2)c(=O)[nH]c1=O`, which IC50 is on record?
The IC50 was greater than 200 µM.

For `COC1=C(OC)/C(=C/C(n2cnc3c(N)ncnc32)P(=O)(O)O)OC1=O` (centres undefined), which IC50 is on record?
Its IC50 is 11.4 µM.

Which IC50 does the source give for `CCOc1ncnc2c1ncn2C[C@@H]1C[C@H](CO)c2ccccc21` here?
Its IC50 is greater than 200 µM.

Which IC50 does the source give for `O=c1[nH]cnc2c1nnn2C1C[C@H](CO)[C@@H](CO)[C@@H]1CO` (some centres undefined) here?
Its IC50 is greater than 200 µM.

Which IC50 does the source give for `CC1(C)[C@@H](CO)CC[C@@]1(C)Cn1cnc2c(=O)[nH]cnc21` here?
Its IC50 is greater than 200 µM.

For `Nc1ncnc2c1ncn2C[C@@H]1CCC[C@H]1CO`, which IC50 is on record?
Its IC50 is greater than 200 µM.

Which IC50 does the source give for `Cc1cn(C[C@@H]2C[C@H](CO)c3ccccc32)c(=O)[nH]c1=O` here?
The IC50 was greater than 200 µM.

With `Cc1ccc(C(=O)/C=C/c2cc(O)nc(O)n2)cc1` as the compound, how does the IC50 read?
The IC50 was 182 µM.

For `OC[C@@H]1CCC[C@@H]1Cn1cnc2c(Cl)ncnc21`, which IC50 is on record?
The IC50 was 52.5 µM.

With `CC(C)Nc1ncnc2c1ncn2C1C[C@@H](CO)[C@@H](CO)C1` (some centres undefined) as the compound, how does the IC50 read?
Its IC50 is greater than 200 µM.

Which IC50 does the source give for `C=Cc1cn([C@H]2C[C@H](O)[C@@H](CO)O2)c(=O)[nH]c1=O` here?
Its IC50 is 14.2 µM.

With `Nc1ncnc2c1ncn2[C@H]1C[C@@H](O)[C@@H](C=O)O1` as the compound, how does the IC50 read?
Its IC50 is 26.6 µM.

With `O=c1[nH]c(=O)n(COCCO)cc1I` as the compound, how does the IC50 read?
The IC50 was greater than 200 µM.

For `O=c1[nH]c(=O)n(C2C[C@@H](CO)[C@@H](CO)C2)cc1I` (some centres undefined), which IC50 is on record?
The IC50 was greater than 200 µM.

For `CC1(C)[C@@H](CO)CC[C@@]1(C)Cn1cnc2c(N)ncnc21`, which IC50 is on record?
Its IC50 is greater than 200 µM.

With `Cc1ccc(C(=O)/C=C/c2cc(=O)[nH]c(=O)n2COCCO)cc1` as the compound, how does the IC50 read?
The IC50 was 27.9 µM.

With `O=c1[nH]cnc2c1ncn2CC1CCC(CO)C1` (centres undefined) as the compound, how does the IC50 read?
Its IC50 is greater than 200 µM.

For `Cc1ccc(-c2ncnc3c2ncn3C[C@@H]2C[C@H](CO)c3ccccc32)cc1`, which IC50 is on record?
Its IC50 is 15.4 µM.

For `O=c1[nH]c(=O)n([C@H]2C[C@H](O)[C@@H](CO)O2)cc1[N+](=O)[O-]`, which IC50 is on record?
Its IC50 is 0.13 µM.

With `CCc1cn([C@H]2C[C@H](O)[C@@H](CO)O2)c(=O)[nH]c1=O` [EDOXUDINE] as the compound, how does the IC50 read?
The IC50 was 33.2 µM.

Which IC50 does the source give for `O=C1OC(C(O)Cn2cc(C(F)(F)F)c(=O)[nH]c2=O)C(OCc2ccccc2)=C1OCc1ccccc1` (centres undefined) here?
The IC50 was 50.1 µM.

Which IC50 does the source give for `O=c1[nH]c(=O)n([C@H]2C[C@H](O)[C@@H](CO)O2)cc1C#CCO` here?
Its IC50 is greater than 200 µM.

For `CC1(C)[C@@H](Cn2cnc3c(O)nc(N)nc32)CC[C@@]1(C)CO`, which IC50 is on record?
The IC50 was greater than 200 µM.

For `O=c1[nH]c(=O)n([C@@H]2C[C@H](CO)C[C@@H]2CO)cc1I`, which IC50 is on record?
Its IC50 is greater than 200 µM.

Which IC50 does the source give for `CC1(C)[C@@H](CO)CC[C@@]1(C)Cn1ccc(=O)[nH]c1=O` here?
The IC50 was greater than 200 µM.

Which IC50 does the source give for `CO[C@@H]1OC[C@@H](OC(C)=O)[C@@H](OC(C)=O)[C@]1(F)n1ccc(=O)[nH]c1=O` here?
Its IC50 is 55 µM.

For `O=C1C(O)=C(O)O/C1=C\Cn1cc(F)c(=O)[nH]c1=O`, which IC50 is on record?
The IC50 was 5.18 µM.

Which IC50 does the source give for `CC(=O)OCCOCn1cnc2c(=S)[nH]c(N)nc21` here?
The IC50 was 3.2 µM.

Which IC50 does the source give for `CC1(C)C(CO)CC1Cn1cnc2c(N)nc(N)nc21` (centres undefined) here?
Its IC50 is greater than 200 µM.

With `O=C1OC(C(O)Cn2cc(F)c(=O)[nH]c2=O)C(OCc2ccccc2)=C1OCc1ccccc1` (centres undefined) as the compound, how does the IC50 read?
The IC50 was 140 µM.

Which IC50 does the source give for `Nc1ncnc2c1ncn2[C@@H]1O[C@H](CO)[C@H](F)[C@@H]1O` here?
Its IC50 is 5.94 µM.

Which IC50 does the source give for `OC[C@H]1C[C@@H](Cn2cnc3c(-c4ccccc4)ncnc32)c2ccccc21` here?
Its IC50 is 28.1 µM.

With `OC[C@H]1C[C@@H](Cn2cnc3c(-c4ccc(Cl)cc4)ncnc32)c2ccccc21` as the compound, how does the IC50 read?
The IC50 was 8.44 µM.

Which IC50 does the source give for `CC(=O)OC(C)Cn1cnc2c(=S)[nH]c(N)nc21` (centres undefined) here?
The IC50 was 128 µM.

For `CCCCC#Cc1cn([C@H]2C[C@H](O)[C@@H](CO)O2)c(=O)[nH]c1=O`, which IC50 is on record?
The IC50 was greater than 200 µM.

Which IC50 does the source give for `COC1=C(OC)/C(=C/Cn2cnc3c(Cl)ncnc32)OC1=O` here?
The IC50 was 14 µM.

For `OC[C@@H]1C[C@H](Cn2cnc3c(NC4CC4)ncnc32)c2c(-c3ccccc3)nnc(-c3ccccc3)c21`, which IC50 is on record?
The IC50 was greater than 200 µM.

With `CC1(C)[C@@H](CCCO)C[C@H]1n1cnc2c(Cl)nc(N)nc21` as the compound, how does the IC50 read?
Its IC50 is greater than 200 µM.

Which IC50 does the source give for `CC1(C)[C@@H](Cn2nnc3c(N)nc(N)nc32)CC[C@@]1(C)CO` here?
Its IC50 is greater than 200 µM.

Which IC50 does the source give for `CCC#Cc1cn([C@H]2C[C@H](O)[C@@H](CO)O2)c(=O)[nH]c1=O` here?
Its IC50 is greater than 200 µM.

Which IC50 does the source give for `O=c1ccn([C@@H]2O[C@H](CO)[C@H](F)[C@@H]2O)c(=O)[nH]1` here?
Its IC50 is greater than 200 µM.

Reference: ChEMBL document CHEMBL1142978, “Probing the anticancer activity of nucleoside analogues: a QSAR model approach using an internally consistent training set” (J Med Chem, 2007)
